# Several values for one entry are separate records, joined by “and”; a condition that tells them apart may be missing. Equal values may be shown once.
# Legend:
# LCE = LCE assay: cleavage of [14C]-AZT-DMDOPE/AZT-DMDOPE to DMDOP by fractions of human blood cells; assay type: biochemical; settings: for Spezifische Aktivität: n = 4; for spezifische LCE-Aktivität / AZT-DMDOPE-spaltende Aktivität (spezifische Aktivität des LCE): n = 6; for Km / vmax: membrane fraction 0.068 mg/Ansatz
# Experimental: Das Pipettierschema ist in der folgenden Tabelle angegeben. Tabelle
# Zur Untersuchung der enzymatischen Spaltung in Abhängigkeit von der Substratkonzentration wurde eine Substratstammlösung von 0.98 nmol [^14C]-AZT-DMDOPE und 0.7 nmol AZT-DMDOPE/80 µl Aqua bidest. im LCE-Assay angesetzt. Die verschiedenen Substratkonzentrationen im LCE-Assay wurden durch kontinuierliche Verdopplung bzw. Halbierung des Volumens an Substratlösung eingestellt. Die Ansätze wurden in Glasröhrchen (5 ml) vorgelegt und durch Zugabe der Substratlösung gestartet. Die Inkubation wurde bei 37 °C im Wasserbad unter leichtem Schütteln durchgeführt.
# Die Reaktionsansätze des LCE-Assays wurden nach entsprechender Inkubationszeit dem Wasserbad entnommen, und die Reaktion durch Zugabe von 750 µl 2-Propanol gestoppt. Nach gründlicher Durchmischung wurden die Ansätze anschließend mit 700 µl auf Raumtemperatur erwärmtem n-Heptan versetzt. Die Ansätze wurden erneut für 30 sec gut gemischt und zur Beschleunigung der Phasentrennung in der Minifuge T bei 3200 rpm für 15 min bei Raumtemperatur zentrifugiert. Anschließend wurden 500 µl der oberen Phase (n-Heptan) entnommen und in neue Glasröhrchen (5 ml) mit 10 mg Kieselgel 60 H und 200 µl n-Heptan überführt. Die Ansätze wurden für 30 sec gut durchmischt und zur Sedimentation des Kieselgels für 10 min unter oben genannten Bedingungen zentrifugiert. Vom Überstand wurden anschließend 500 µl entnommen und mit 3 ml Szintillationsflüssigkeit versetzt. Die Messung der Radioaktivität erfolgte für 4 min im Flüssigkeits-Szintillations-Analysator. Zur Bestimmung des Absolutwertes an Radioaktivität wurden 200 µl der Substratlösung mit 3 ml Szintillationsflüssigkeit versetzt und unter gleichen Bedingungen im Flüssigkeits-Szintillations-Analysator gemessen.
# Für diese Untersuchungen ist ein Enzym-Assay etabliert, in dem AZT-DMDOPE und [^14C]-AZT-DMDOPE als Substrat eingesetzt wurde (Beispiel 6). […] Bei substratabhängigen Umsetzungen wurde eine Stammlösung von 0.98 nmol [^14C]-AZT-DMDOPE und 0.7 nmol AZT-DMDOPE /80 µl eingesetzt. Die verschiedenen Substratkonzentrationen wurden anschließend durch kontinuierliche Verdopplung bzw. Halbierung des Volumens an Substratlösung eingestellt.
# Die Quantifizierung der enzymatischen Spaltung von AZT-DMDOPE wurde durch eine zweistufge Extraktion des Metaboliten DMDOP mit n-Heptan und anschließender Adsorption von Resten des Substrates AZT-DMDOPE an Kieselgel 60 H durchgeführt. Hierbei wurden die Reaktionsansätze mit 2-Propanol und n-Heptan versetzt. wobei sich das im Vergleich zum Substrat unpolare DMDOP in der n-Heptan-Phase anreichert. Die n-Heptan-Phase wurde dann mit Kieselgel 60 H versetzt, wobei Reste des Substrates AZT-DMDOPE adsorbiert werden. Die n-Heptan-Phase wurde anschließend durch Zentrifugation vom Kieselgel separiert, in 3 ml Aqua luma überführt und die in ihr enthaltene Menge an radioaktiv markiertem DMDOP im Flüssigkeits-Szintillations-Analysator über einen Zeitraum von 5 min bestimmt. Aus diesen Ergebnissen konnte die prozentuale Umsetzung des Substrates AZT-DMDOPE zu DMDOP und die spezifische Aktivität des LCE errechnet werden. Als spezifische Aktivität wurde hierbei die Menge an DMDOP bezeichnet die pro 1 mg Protein der eingesetzten Zellpräparationen pro Minute gebildet wurde.
# Nach Bestimmung der Proteinkonzentration in Zellhomogenaten, Zytosol- und Membranfraktionen mit Hilfe des Bicinchoninsäure(BCS)-Tests wurden 0.025 - 0.20 mg Protein/Ansatz eingesetzt.
# Zur Isolierung der Plasmamembranen wurden 2 ml einer Zellsuspension stimulierter humaner PBL mit einer Zelldichte von 2.5 x 10^8 Zellen/ml durch dreimaliges Einfrieren und Auftauen aufgeschlossen und durch Zentrifugation im Percoll-Dichtegradienten fraktioniert.
# [1] = system: nichtstimulierten humanen PBL; test: Intracellular concentrations of AZT and AZT nucleotides (radioimmunoassay) in non-stimulated human PBL; assay type: in vitro ADME
# Description: AZT wurden humane PBL aus "Buffy coat" isoliert.
# [2] = system: Zellhomogenate humaner PBL; test: Enzymatic cleavage of [14C]-AZT-DMDOPE by cell homogenates, TLC of metabolites; assay type: in vitro ADME, human
# Experimental: Die Spaltung von AZT-DMDOPE wurde mit Hilfe eines Enzym-Assays mit [^14C]-AZT-DMDOPE und AZT-DMDOPE als Substrat untersucht. Als Enzymquelle wurden zunächst Zellhomogenate von CEM-SS-Zellen und humanen PBL verwendet. Tab.
# Letztere wurden sowohl nach Stimulation mit PHA-M als auch in nichtstimuliertem Zustand direkt nach ihrer Isolierung homogenisiert und im Enzym-Assay eingesetzt.
# Zur Herstellung der Zellhomogenate wurden Zellsuspensionen mit einer Dichte von 5 x10^7 Zellen/ml 50 mM Tris (pH 7.4) im Glashomogenisator mechanisch aufgeschlossen. Der Zellaufschluß wurde hierbei im Umkehr-Phasenkontrast-Mikroskop optisch kontrolliert. Tab.
# Zunächst wurde 1 ml dieses Zellhomogenales in dem Enzym-Assay ohne vorherige Bestimmung der Proteinkonzentration eingesetzt.
# Zur Gewährleistung einer Substratsättigung wurden weitere 50 nmol der nichtradioaktiv markierten Verbindung hinzugefügt. [^14C]-AZT-DMDOPE trägt die radioaktive Markierung im Thioetherlipidteil und erlaubt somit eine eindeutige Identifikation der potentiellen Metabolits [^14-C]DMDOP.
# Die Ansätze wurden für 1, 3, 6 und 24 h im Wasserbad bei 37 °C inkubiert. Als Vergleich wurde ein Ansatz ohne Zugabe von Zellhomogenat mitgeführt. Anschließend wurden die Spaltprodukte mit Diethylether:2-Propanol (9:1, v/v) extrahiert und dünnschichtchromatographisch im IBA- und IBAE-System analysiert (Abb. 18). […]
# [3] = humane Monozyten/Makrophagen (stimulierte Monozyten), 37 °C, 2 h
# [4] = nichtstimulierte humane PBL, 37 °C, 2 h
# [5] = stimulierte humane PBL, 37 °C, 2 h
structure (smiles),measurement,setting,value
"CCCCCCCCCCCCSCC(COP(=O)(O)OC[C@H]1O[C@@H](n2cc(C)c(=O)[nH]c2=O)C[C@@H]1N=[N+]=[N-])OCCCCCCCCCC (some centres unmarked) [AZT-DMDOPE, (3'-Desoxy-3'-azidothymidin)-5'-phosphorsäure-(3-dodecyl-mercapto-2-decyloxy)-propylester]",höchste spezifische LCE-Aktivität,"LCE; Fraktion 8 (plasma membrane enriched) of Percoll gradient, stimulierte humane PBL, 0.05 mg protein/Ansatz, 37 °C, 2 h",4.40 pmol mg^-1 min^-1 min
same,Spezifische Aktivität,"LCE; Membranfraktion humaner Monozyten isolated in hypertonic density gradient, linear range",3.2 + 0.60 pmol mg^-1 min^-1
same,Spezifische Aktivität,LCE; Membranfraktion humaner Monozyten/Makrophagen (stimulated by adherence),8.8 ± 0.26 pmol/mg/min
same,spezifische LCE-Aktivität,"LCE; Membranfraktion nichtstimulierter humaner PBL, calculated from linear range",1.45 ± 0.32 pmol/mg/min
same,spezifische LCE-Aktivität,"LCE; Membranfraktionen stimulierter humaner PBL, 2 h 37 °C",14.23 ± 0.70 pmol/mg/min and 14.23 ± 0.7 pmol/mg/min
same,AZT-DMDOPE-spaltende Aktivität (spezifische Aktivität des LCE),"LCE; Zellhomogenate stimulierter humaner PBL, 2 h 37 °C",6.48 ± 0.38 pmol/mg/min
same,AZT-DMDOPE-spaltende Aktivität (spezifische Aktivität des LCE),"LCE; Zytosolfraktionen stimulierter humaner PBL, 2 h 37 °C",1.65 ± 0.40 pmol/mg/min
same,spezifische Aktivitäten,"LCE; all further fractions of Percoll gradient, stimulierte humane PBL, 0.05 mg protein/Ansatz, 37 °C, 2 h",1.10 to 1.90 pmol/mg/min
same,Km,"LCE; humane Monozyten, 37 °C, 2 h",12.1 ± 4.13 µM
same,vmax,"LCE; humane Monozyten, 37 °C, 2 h",1.61 ± 0.37 pmol/mg/min
same,Km,LCE; [3],4.63 ± 0.45 µM
same,vmax,LCE; [3],9.09 ± 0.44 pmol/mg/min
same,Km,LCE; [4],5.51 ± 0.99 µM
same,vmax,LCE; [4],2.03 ± 0.19 pmol/mg/min
same,Km,LCE; [5],2.26 ± 0.16 µM
same,vmax,LCE; [5],15.29 ± 0.37 pmol/mg/min
same,maximale intrazelluläre Konzentrationen an AZT und AZT-Nukleotiden,[1]; 1 µg AZT-DMDOPE/ml,0.62 ng/10^6 Zellen
same,maximale intrazelluläre Konzentrationen an AZT und AZT-Nukleotiden,[1]; 10 µg AZT-DMDOPE/ml,4.74 ng/10^6 Zellen
same,intrazelluläre Konzentrationen an AZT und AZT-Nukleotiden im Vergleich zur äquipotenten Konzentration an AZT,[1]; whole incubation time,größer
same,Metabolisierung von AZT-DMDOPE,[2],zu DMDOP und AZT-MP metabolisiert

# Source: EP0791056B1, “LIPID-CLEAVAGE ENZYME COMPLEX” (priority 1994, dated 1996)
